# Test: in vivo
# Conditions: dog
# Method: In the case of dogs, one male and one female Beagle dog were selected for the study. A period of 5 days was used to allow dogs to acclimatize, and at the start of dosing, they were between 5 and 6 months old. Dogs were housed individually per sex in an environmentally controlled room, maintained at 24 ± 2 °C and 71.5 ± 4.5% relative humidity, on a 12–12 h light–dark cycle (beginning at 06:00 h) with 17 or 22 air changes per hour. Dogs were provided with 300 g feed every day and with water ad libitum.
# Compound 5 was administered via an intravenous bolus injection through the cephalic vein of the forelimb, using a sterile needle attached to a graduated syringe. An initial dose level of 50 mg/kg b. wt. […] Following a washout period of 7 days, a dose of 75 mg/kg b. wt. […] A constant volume of 1 mL/kg b. wt. was used, with individual doses adjusted to the most recent recorded body weight of each animal. Dogs were observed twice daily for clinical, mortality, and morbidity signs throughout the study period of 7 days. Body weight was recorded on dosing day and every two days during the assay period. Additionally, a daily record of individual dog feed intake and leftover feed was maintained. Blood samples were obtained prior to dosing and on day 7. Blood was extracted either from the cephalic vein in the forelimb or the lateral saphenous vein in the hind limb. Around 2.0 mL of blood was collected in non-heparin centrifuge tubes for serum separation to conduct clinical chemistry estimations. An additional 0.5 mL of blood was collected in EDTA-containing vials for hematology analysis and another 0.5 mL of blood was collected in tubes containing a 3.2% sodium citrate solution for Prothrombin time determination. Dogs were fasted overnight, with only water allowed prior to blood collection. Hematology and clinical chemistry determinations are available upon request. Dogs were euthanized by an intravenous injection of barbiturate (thiopentone sodium 100 mg/kg b. wt.). Then, a comprehensive gross necropsy was performed. Dogs were first examined for external abnormalities. The cranial, thoracic, and abdominal cavities were then dissected, and a thorough examination of the organs was conducted. Specifically, the liver, testes, uterus, brain, and kidneys were collected and subjected to microscopic examination using paraffin-embedded tissue stained with hematoxylin-eosin.
compound,measurement,setting,value
O=c1[nH]nc(-c2cn(C3CCNCC3)nn2)o1 [compound 5],MTD at 7 days,"both, Beagle, iv",75 mg/kg
same,"Microscopic Findings, kidneys",,Kidneys (bilateral): min ima l infiltration
same,"Microscopic Findings, testes",,Testes (bilateral): immature – present
same,hematology and clinical chemistry parameters,,did not show any alteration
same,terminal body and organ weight,,no treatment-related alterations
